Assay results as given in PMC5342726, “Identification of small molecule inhibitors of ERCC1-XPF that inhibit DNA repair and potentiate cisplatin efficacy in cancer cells” (Oncotarget, 2016).

How the values were obtained:
Format in all cases: biochemical
HhaI [1] = assay: Gel-based nuclease assay, HhaI; settings: compound titration
HhaI [2] = assay: Secondary screen, fluorescence assay with HhaI endonuclease; settings: compound titration in the HTS assay
ERCC1-XPF = target: T1, ERCC1-XPF (Homo sapiens, UniProt P07992+Q92889); assay: Rapid dilution experiment for reversible or irreversible binding; settings: for recovery of enzymatic activity after rapid dilution: 100-fold enzyme preincubated 30 min with 10 times IC90, diluted 100-fold; for reversibility of binding to ERCC1-XPF: rapid dilution method
T1 construct: made in house; host or cells: Sf9 insect cells, baculovirus (obtained from Aziz Sancar)
T1 sequence (Q92889 1-916): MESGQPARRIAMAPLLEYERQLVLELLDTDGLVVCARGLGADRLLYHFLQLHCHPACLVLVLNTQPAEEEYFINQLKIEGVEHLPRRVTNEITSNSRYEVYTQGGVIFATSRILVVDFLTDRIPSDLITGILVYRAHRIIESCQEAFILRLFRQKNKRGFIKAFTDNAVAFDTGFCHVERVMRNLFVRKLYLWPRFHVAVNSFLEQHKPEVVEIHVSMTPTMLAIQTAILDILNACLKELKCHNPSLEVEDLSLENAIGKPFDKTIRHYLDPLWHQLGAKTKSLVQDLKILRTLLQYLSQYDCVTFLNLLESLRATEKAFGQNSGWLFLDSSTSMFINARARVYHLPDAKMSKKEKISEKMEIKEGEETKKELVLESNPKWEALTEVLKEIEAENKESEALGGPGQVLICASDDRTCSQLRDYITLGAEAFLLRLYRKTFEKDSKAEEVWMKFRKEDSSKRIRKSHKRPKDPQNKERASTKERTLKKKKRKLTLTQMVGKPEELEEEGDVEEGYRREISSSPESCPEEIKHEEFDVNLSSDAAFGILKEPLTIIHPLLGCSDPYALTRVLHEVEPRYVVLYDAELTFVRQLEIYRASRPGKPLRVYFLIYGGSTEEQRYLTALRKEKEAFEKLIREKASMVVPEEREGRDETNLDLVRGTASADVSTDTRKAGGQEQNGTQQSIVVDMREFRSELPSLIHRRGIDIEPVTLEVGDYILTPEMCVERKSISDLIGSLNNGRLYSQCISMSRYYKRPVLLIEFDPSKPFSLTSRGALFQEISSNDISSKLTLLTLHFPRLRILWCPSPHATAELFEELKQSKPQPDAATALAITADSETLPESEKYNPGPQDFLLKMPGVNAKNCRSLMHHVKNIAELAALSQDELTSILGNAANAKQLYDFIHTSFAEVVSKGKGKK
T1 sequence (P07992 1-297): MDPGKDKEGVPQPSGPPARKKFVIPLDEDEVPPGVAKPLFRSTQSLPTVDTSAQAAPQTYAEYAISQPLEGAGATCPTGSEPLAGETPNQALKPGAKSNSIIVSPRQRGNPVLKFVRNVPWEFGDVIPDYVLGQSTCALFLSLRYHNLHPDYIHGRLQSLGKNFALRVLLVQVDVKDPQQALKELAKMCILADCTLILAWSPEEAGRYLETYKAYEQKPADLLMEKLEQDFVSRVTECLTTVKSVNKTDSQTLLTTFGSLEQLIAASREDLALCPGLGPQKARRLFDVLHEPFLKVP
Description: Next, to determine reversible or irreversible binding, we used a rapid dilution method. Here, the amount of enzyme (ERCC1-XPF) is increased 100-fold above what is normally used in a reaction and is pre-incubated for 30 minutes with a concentration of the SMI 10-times greater than the IC90 concentration or with vehicle control. After incubation, the enzyme/inhibitor mixture is diluted 100-fold (i.e., to normal reaction conditions) in the reaction buffer with the DNA substrate at normal reaction conditions. A reversible inhibitor dissociates quickly, allowing immediate recovery of enzymatic activity, whereas a slowly reversible inhibitor allows a gradual increase in activity. In contrast, an irreversible inhibitor prevents recovery of any enzymatic activity. […]
Analysis of DNA binding treatment) was used as 100% intrastrand adducts in each […]
Rapid dilution experiments as described previously […]
of the identified compounds – Hit 1 (NSC143099) and Hit comet assay
2 (NSC16168) to ERCC1-XPF. Briefly, in a 10 μl reaction, ERCC1-XPF concentration was increased 100-fold from Repair of interstrand crosslinks (ICLs) normal reaction conditions of 7.5 nM and mixed with 10 was assessed by alkaline comet assay with some times the IC90 concentration of the compound or vehicle modifications. Cells were treated with compound (Hit control (9:1 DMSO-glycerol). After incubation at 37°C 1 or Hit 2) and cisplatin or just cisplatin alone in serum for 30 minutes, 2 μL of the pre-incubate was diluted into a free media. For treatment with compound and cisplatin, 198 μL solution containing the DNA substrate and reaction cells were treated with compound at 15 µM for 2 hours buffer described in the methods section for HTS assay in a 96 and then cisplatin was added (at IC90 concentration for well plate. The 96-well plate was read in a Spectramax M5 the cell line used) to the media and these were incubated repeatedly for 60 minutes. The data was plotted as increase for another 2 hours. […]
Cisplatin intrastrand adduct measurement by of hydrogen peroxide for 15 minutes to induce random ELISA DNA strand breaks. Cells were then trypsinized, pelleted and resuspended in 1% low melting point agarose. Cell […]
ELISA as described with some modifications. […] Equal amounts of DNA were coated on 96 kept in neutralizing solution (0.4 M Tris–HCl, pH 7.5) well DNA binding ELISA plates in binding buffer (1M for 10 minutes. Slides were then stained with SYBR sodium chloride, 50 mM sodium phosphate buffer, pH green (Trevigen) and comets were analyzed using a 7.4, 0.02% sodium azide) and incubated at 4°C overnight. […]
The wells were blocked with 1% BSA in PBS for 1 hour Fifty cells were analyzed per slide using Komet Assay at room temperature. […]

SMILES | inhibition of HhaI nuclease activity, gel-based assay (HhaI [1]) | effect on HhaI activity (HhaI [2]) | recovery of enzymatic activity after rapid dilution (ERCC1-XPF) | reversibility of binding to ERCC1-XPF (ERCC1-XPF)
Cc1ccc(S(=O)(=O)Oc2cc(S(=O)(=O)O)cc3cc(S(=O)(=O)O)cc(N)c23)cc1 [NSC16168] | does not inhibit the nuclease activity | no effect | recovers slowly | moderately reversible inhibitor
Oc1cc(O)c2c(c1)OC(c1ccc(O)c(O)c1)C(O)C2c1c(O)cc(O)c2c1OC(c1ccc(O)c(O)c1)C(O)C2 (centres unmarked) [NSC143099] | does not inhibit the nuclease activity | no effect on HhaI activity | virtually no recovery of the enzymatic activity | binds irreversibly
